The results in this text go back to patent US9365533B2, “Coumarin derivative” (NIPPON ZOKI PHARMACEUTICAL CO., LTD., priority 2012, dated 2016).

The test has as its system HFLS-OA cells. Nature of the test: Suppressive action to TNF-α-induced proliferation of synovial cells (HFLS-OA), BrdU ELISA. The class given is cell-based. The note with it: 200 μmol/L test substance, human recombinant TNF-α 10 ng/mL, 5 days, BrdU incorporation increase by TNF-α = 100%; for activity at 200 µM: Synovial cell, 120 h, read-out: Synovial Cell Proliferation Rate (%). As to the method: Evaluation of Suppressive Action to Cell Proliferation of Synovial Cells (HFLS-OA) Derived from Tissues of Human Osteoarthritis
(1) Incubation of HFLS-OA Cells
HFLS-OA cells were sown onto a 96-well plate so as to make them 10^4 cells/well/100 μL in a D-MEM containing 2 vol % of fetal bovine serum (FBS) and incubated for 24 hours. A test substance (200 μmol/L) and human recombinant TNF-α (10 ng/mL) were added thereto followed by incubating for 5 days.
(2) Measurement of Action to HFLS-OA Cell Proliferation
A kit [Cell Proliferation ELISA, BrdU (colorimetric) (Roche Diagnostics)] was used and measurement was conducted according to the protocol attached to the kit. HFLS-OA cells were incubated for 3 days and 10 μL of 5-bromo-2′-deoxyuridine (BrdU) dissolved in a phosphate buffered saline (PBS) (100 μmol/L, pH 7.4) was added to each well followed by incubating for 48 hours more. After the culture supernatant was removed from each well, 200 μL/well of an immobilization/denaturation solution was added thereto and the mixture was allowed to stand for 30 minutes whereby immobilization of the cells and denaturation of DNA were conducted. After the immobilization/denaturation solution was completely removed, 100 μL of a peroxidase-labeled anti-BrdU antibody solution was added thereto and the mixture was made to react at room temperature for 90 minutes. After washing with PBS, 100 μL of a substrate liquid (tetramethylbenzidine) was added to each well and the absorbance was measured. A cell proliferation rate upon addition of each test substance was calculated where an increase in incorporation of BrdU upon addition of TNF-α was defined as 100% of cell proliferation rate.

Take `CS(=O)(=O)Nc1cc2cccc(OS(=O)(=O)c3cccc(Br)c3)c2oc1=O` [Compound 39, 3-(Methanesulfonamide)-2-oxochromen-8-yl 3-bromobenzenesulfonate]: the “Synovial Cell Proliferation Rate (%)” value is −43.0%.

Take `O=c1oc2c(OS(=O)(=O)c3cccc(F)c3)cccc2cc1NS(=O)(=O)c1cccc(F)c1` [Compound 11, 3-[(3-Fluorophenyl)sulfonylamino]-2-oxochromen-8-yl 3-fluorobenzenesulfonate]: the activity at 200 µM was -90.6%.

As to `Cc1ccccc1S(=O)(=O)Nc1cc2cccc(OS(=O)(=O)c3ccccc3C)c2oc1=O` [Compound 6, 3-(o-Tolylsulfonylamino)-2-oxochromen-8-yl 2-methyl-benzenesulfonate], the activity at 200 µM was -77.4%.

Turning to `N#Cc1ccccc1S(=O)(=O)Nc1cc2cccc(OS(=O)(=O)c3ccccc3C#N)c2oc1=O` [Compound 15, 3-[(2-Cyanophenyl)sulfonylamino]-2-oxochromen-8-yl 2-cyanobenzenesulfonate], the activity at 200 µM was -3.3%.

Take `O=c1oc2c(OS(=O)(=O)c3ccccc3F)cccc2cc1NS(=O)(=O)c1ccccc1F` [Compound 12, 3-[(2-Fluorophenyl)sulfonylamino]-2-oxochromen-8-yl 2-fluorobenzenesulfonate]: the activity at 200 µM is -91.8%.

`O=c1oc2c(OS(=O)(=O)c3cccc(Cl)c3)cccc2cc1NS(=O)(=O)c1cccc(Cl)c1` [Compound 8, 3-[(3-Chlorophenyl)sulfonylamino]-2-oxochromen-8-yl 3-chlorobenzenesulfonate]: the activity at 200 µM is -94.4%.

Consider `O=c1oc2c(OS(=O)(=O)c3ccc(Cl)cc3)cccc2cc1NS(=O)(=O)c1ccc(Cl)cc1` [Compound 7, 3-[(4-Chlorophenyl)sulfonylamino]-2-oxochromen-8-yl 4-chlorobenzenesulfonate], for which the activity at 200 µM is -92.5%.

Consider `COc1ccccc1S(=O)(=O)Nc1cc2cccc(OS(=O)(=O)c3ccccc3OC)c2oc1=O` [Compound 3, 3-[(2-Methoxyphenyl)sulfonylamino]-2-oxochromen-8-yl 2-methoxybenzenesulfonate], for which the activity at 200 µM is -65.1%.

As to `O=c1oc2c(OS(=O)(=O)c3ccccc3Cl)cccc2cc1NS(=O)(=O)c1ccccc1Cl` [Compound 9, 3-[(2-Chlorophenyl)sulfonylamino]-2-oxochromen-8-yl 2-chlorobenzenesulfonate], the activity at 200 µM was -88.8%.

On to `O=c1oc2c(OS(=O)(=O)c3ccc(F)cc3)cccc2cc1NS(=O)(=O)c1ccc(F)cc1` [Compound 10, 3-[(4-Fluorophenyl)sulfonylamino]-2-oxochromen-8-yl 4-fluorobenzenesulfonate], for which the activity at 200 µM is -34.9%.

Regarding `COc1cccc(S(=O)(=O)Nc2cc3cccc(OS(=O)(=O)c4cccc(OC)c4)c3oc2=O)c1` [Compound 2, 3-[(3-Methoxyphenyl)sulfonylamino]-2-oxochromen-8-yl 3-methoxybenzenesulfonate], the activity at 200 µM was -52.2%.

Regarding `Cc1ccc(S(=O)(=O)Nc2cc3cccc(OS(=O)(=O)c4ccc(C)cc4)c3oc2=O)cc1` [Compound 4, 2-Oxo-3-(p-tolylsulfonylamino)chromen-8-yl 4-methyl-benzenesulfonate], the activity at 200 µM was -88.1%.

As for `CS(=O)(=O)Nc1cc2cccc(OS(=O)(=O)c3ccccc3)c2oc1=O` [Compound 40, 3-(Methanesulfonamide)-2-oxochromen-8-yl benzene-sulfonate], the “Synovial Cell Proliferation Rate (%)” value is −40.5%.

In the case of `Cc1cccc(S(=O)(=O)Nc2cc3cccc(OS(=O)(=O)c4cccc(C)c4)c3oc2=O)c1` [Compound 5, 3-(m-Tolylsulfonylamino)-2-oxochromen-8-yl 3-methyl-benzenesulfonate], the activity at 200 µM was -84.9%.
